Data: US20250353891A1 (MEDIMMUNE LIMITED, priority 2022, published 2025)
Starred links: 1 amine or outer side, 2 acyl side, 3 side chain; linkers in the order of their positions; H or OH if unused. Non-standard residues stand in square brackets, D forms with d. Residues, ends and D or L forms follow the SMILES beside them. Groups on a side chain read outwards from the residue. *: point of attachment. C20 diacid = O=C(O)CCCCCCCCCCCCCCCCCCC(=O)*; C18 diacid = O=C(O)CCCCCCCCCCCCCCCCC(=O)*; γGlu = O=C(O)[C@H](CCC(=O)[*:2])N[*:1]; αMeF = C[C@](N)(Cc1ccccc1)C(=O)O; AEEA = NCCOCCOCC(=O)O; Aib = CC(C)(N)C(=O)O

Assays:
[1] = target: human glucagon receptor (hGCGR) (Homo sapiens, UniProt P47871); test: cAMP production (HTRF) in CHO cells expressing hGCGR; format: cell-based; set-up: expressed in transfected cells; conditions: Table 7, peptides modified at position 20; cAMP in CHO hGCGR cells; geometric mean; read-out: hGluc-R EC50
In short: (§1)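 Cells were resuspended in assay buffer at batch-optimized density, typically 1×10^5 cells/mL for hGLP-1R and 2×10^5 cells/mL for hGCGR. After 30 min incubation at room temperature with compound, cAMP was measured by two-step HTRF. EC50 values came from 4-parameter logistic fits of % Delta F.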

[2] = target: human GLP-1 receptor (hGLP-1R) (Homo sapiens, UniProt P43220); test: cAMP production (HTRF) in CHO cells expressing hGLP-1R; format: cell-based; set-up: expressed in transfected cells; conditions: for EC50: Table 7, peptides modified at position 20, cAMP in CHO hGLP-1R cells, geometric mean, read-out: hGLP-1R EC50; for % Relative Potency Ratio: Table 7, % GLP-1R activity relative to GLP-1 / % GlucR activity relative to glucagon
In short: as §1

Sequence of human GLP-1 receptor (hGLP-1R) (P43220 24-463): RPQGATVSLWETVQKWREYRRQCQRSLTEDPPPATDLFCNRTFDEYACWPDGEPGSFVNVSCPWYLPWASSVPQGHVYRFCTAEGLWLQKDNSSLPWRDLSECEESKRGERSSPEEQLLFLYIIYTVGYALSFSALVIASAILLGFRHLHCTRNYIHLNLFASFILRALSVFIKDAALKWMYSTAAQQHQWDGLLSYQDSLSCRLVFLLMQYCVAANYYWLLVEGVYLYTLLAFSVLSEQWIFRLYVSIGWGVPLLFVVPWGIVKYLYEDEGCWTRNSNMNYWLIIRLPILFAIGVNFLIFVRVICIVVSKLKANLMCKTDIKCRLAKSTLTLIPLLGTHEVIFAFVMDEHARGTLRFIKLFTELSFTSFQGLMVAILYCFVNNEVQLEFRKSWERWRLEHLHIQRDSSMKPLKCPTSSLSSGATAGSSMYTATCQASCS
Sequence of human glucagon receptor (hGCGR) (P47871 26-477): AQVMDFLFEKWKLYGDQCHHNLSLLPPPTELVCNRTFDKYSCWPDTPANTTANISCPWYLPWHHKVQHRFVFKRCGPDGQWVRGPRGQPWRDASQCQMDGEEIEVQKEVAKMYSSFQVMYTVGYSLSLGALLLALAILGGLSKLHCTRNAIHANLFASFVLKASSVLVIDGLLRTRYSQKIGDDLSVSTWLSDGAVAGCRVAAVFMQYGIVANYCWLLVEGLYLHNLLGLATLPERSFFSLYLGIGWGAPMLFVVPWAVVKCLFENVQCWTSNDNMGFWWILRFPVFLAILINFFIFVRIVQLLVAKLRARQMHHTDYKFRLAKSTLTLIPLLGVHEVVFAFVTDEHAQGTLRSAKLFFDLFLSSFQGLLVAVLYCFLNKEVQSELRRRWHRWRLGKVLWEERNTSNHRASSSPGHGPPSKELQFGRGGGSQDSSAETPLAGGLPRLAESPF

| Structure (SMILES) | EC50 [1] [nM] | EC50 [2] [nM] | % Relative Potency Ratio [2] |
| --- | --- | --- | --- |
| CC[C@H](C)[C@H](NC(=O)C(C)(C)NC(=O)[C@H](CCC(N)=O)NC(=O)[C@@H](NC(=O)[C@](C)(Cc1ccccc1)NC(=O)[C@H](CC(=O)O)NC(=O)[C@H](CCCCNC(=O)COCCOCCNC(=O)COCCOCCNC(=O)CC[C@H](NC(=O)CC[C@H](NC(=O)CCCCCCCCCCCCCCCCCCC(=O)O)C(=O)O)C(=O)O)NC(=O)[C@H](C)NC(=O)[C@H](C)NC(=O)[C@H](CCCNC(=N)N)NC(=O)[C@H](CO)NC(=O)[C@H](CC(=O)O)NC(=O)[C@H](CC(C)C)NC(=O)C(C)(C)NC(=O)[C@H](CCCCN)NC(=O)[C@H](CO)NC(=O)[C@@H](NC(=O)[C@H](CC(=O)O)NC(=O)[C@H](CO)NC(=O)[C@@H](NC(=O)[C@](C)(Cc1ccccc1)NC(=O)[C@H](CO)NC(=O)CNC(=O)[C@H](Cc1c[nH]cn1)NC(=O)C(C)(C)NC(=O)[C@@H](N)Cc1c[nH]cn1)[C@@H](C)O)C(C)C)C(C)C)C(=O)N[C@@H](C)C(=O)N[C@@H](CC(N)=O)C(=O)N[C@H](C(N)=O)[C@@H](C)O [Peptide 295] (H-H[Aib]HGS[αMeF]TSDVSK[Aib]LDSRAAK([AEEA-AEEA-γGlu-γGlu-C20 diacid])D[αMeF]VQ[Aib]IANT-NH2) | 17.1 | 0.312 | 108.2 |
| CC[C@H](C)[C@H](NC(=O)C(C)(C)NC(=O)[C@H](CCC(N)=O)NC(=O)[C@@H](NC(=O)[C@](C)(Cc1ccccc1)NC(=O)[C@H](CC(=O)O)NC(=O)[C@H](CCCCNC(=O)COCCOCCNC(=O)COCCOCCNC(=O)CC[C@H](NC(=O)CCCCCCCCCCCCCCCCC(=O)O)C(=O)O)NC(=O)[C@H](C)NC(=O)[C@H](C)NC(=O)[C@H](CCCNC(=N)N)NC(=O)[C@H](CO)NC(=O)[C@H](CC(=O)O)NC(=O)[C@H](CC(C)C)NC(=O)C(C)(C)NC(=O)[C@H](CCCCN)NC(=O)[C@H](CO)NC(=O)[C@@H](NC(=O)[C@H](CC(=O)O)NC(=O)[C@H](CO)NC(=O)[C@@H](NC(=O)[C@](C)(Cc1ccccc1)NC(=O)[C@H](CO)NC(=O)CNC(=O)[C@H](Cc1c[nH]cn1)NC(=O)C(C)(C)NC(=O)[C@@H](N)Cc1c[nH]cn1)[C@@H](C)O)C(C)C)C(C)C)C(=O)N[C@@H](C)C(=O)N[C@@H](CC(N)=O)C(=O)N[C@H](C(N)=O)[C@@H](C)O [Peptide 296] (H-H[Aib]HGS[αMeF]TSDVSK[Aib]LDSRAAK([AEEA-AEEA-γGlu-C18 diacid])D[αMeF]VQ[Aib]IANT-NH2) | 3.25 | 0.0641 | 100.3 |
| CC[C@H](C)[C@H](NC(=O)C(C)(C)NC(=O)[C@H](CCC(N)=O)NC(=O)[C@@H](NC(=O)[C@](C)(Cc1ccccc1)NC(=O)[C@H](CC(=O)O)NC(=O)[C@H](CCCCNC(=O)COCCOCCNC(=O)COCCOCCNC(=O)CC[C@H](NC(=O)CC[C@H](NC(=O)CCCCCCCCCCCCCCCCCCC(=O)O)C(=O)O)C(=O)O)NC(=O)[C@H](C)NC(=O)[C@H](C)NC(=O)[C@H](CCCNC(=N)N)NC(=O)[C@H](CO)NC(=O)[C@H](CC(=O)O)NC(=O)[C@H](CC(C)C)NC(=O)[C@](C)(Cc1ccccc1)NC(=O)[C@H](CCCNC(=N)N)NC(=O)[C@H](CO)NC(=O)[C@@H](NC(=O)[C@H](CC(=O)O)NC(=O)[C@H](CO)NC(=O)[C@@H](NC(=O)[C@](C)(Cc1ccccc1)NC(=O)[C@H](CO)NC(=O)CNC(=O)[C@H](Cc1c[nH]cn1)NC(=O)C(C)(C)NC(=O)[C@@H](N)Cc1c[nH]cn1)[C@@H](C)O)C(C)C)C(C)C)C(=O)N[C@@H](C)C(=O)N[C@@H](CC(N)=O)C(=O)N[C@H](C(N)=O)[C@@H](C)O [Peptide 298] (H-H[Aib]HGS[αMeF]TSDVSR[αMeF]LDSRAAK([AEEA-AEEA-γGlu-γGlu-C20 diacid])D[αMeF]VQ[Aib]IANT-NH2) | 0.573 | 0.0755 | 15.0 |
| CC[C@H](C)[C@H](NC(=O)C(C)(C)NC(=O)[C@H](CCC(N)=O)NC(=O)[C@@H](NC(=O)[C@](C)(Cc1ccccc1)NC(=O)[C@H](CC(=O)O)NC(=O)[C@H](CCCCNC(=O)COCCOCCNC(=O)COCCOCCNC(=O)CC[C@H](NC(=O)CC[C@H](NC(=O)CCCCCCCCCCCCCCCCCCC(=O)O)C(=O)O)C(=O)O)NC(=O)[C@H](C)NC(=O)[C@H](C)NC(=O)[C@H](CCCNC(=N)N)NC(=O)[C@H](CO)NC(=O)[C@H](CC(=O)O)NC(=O)[C@H](CC(C)C)NC(=O)[C@](C)(Cc1ccccc1)NC(=O)[C@H](CCCCN)NC(=O)[C@H](CO)NC(=O)[C@@H](NC(=O)[C@H](CC(=O)O)NC(=O)[C@H](CO)NC(=O)[C@@H](NC(=O)[C@](C)(Cc1ccccc1)NC(=O)[C@H](CO)NC(=O)CNC(=O)[C@H](Cc1c[nH]cn1)NC(=O)C(C)(C)NC(=O)[C@@H](N)Cc1c[nH]cn1)[C@@H](C)O)C(C)C)C(C)C)C(=O)N[C@@H](C)C(=O)N[C@@H](CC(N)=O)C(=O)N[C@H](C(=O)O)[C@@H](C)O [Peptide 304] (H-H[Aib]HGS[αMeF]TSDVSK[αMeF]LDSRAAK([AEEA-AEEA-γGlu-γGlu-C20 diacid])D[αMeF]VQ[Aib]IANT-OH) | 0.687 | 0.239 | 5.7 |

The next compounds have a lower EC50 [1] than those just listed; values first:

| EC50 [1] [nM] | EC50 [2] [nM] | % Relative Potency Ratio [2] | Structure (SMILES) |
| --- | --- | --- | --- |
| 0.193 | 0.0758 | – | CC[C@H](C)[C@H](NC(=O)C(C)(C)NC(=O)[C@H](CCC(N)=O)NC(=O)[C@@H](NC(=O)[C@](C)(Cc1ccccc1)NC(=O)[C@H](CC(=O)O)NC(=O)[C@H](CCCCNC(=O)COCCOCCNC(=O)COCCOCCNC(=O)CC[C@H](NC(=O)CC[C@H](NC(=O)CCCCCCCCCCCCCCCCCCC(=O)O)C(=O)O)C(=O)O)NC(=O)[C@H](C)NC(=O)[C@H](C)NC(=O)[C@H](CCCNC(=N)N)NC(=O)[C@H](CO)NC(=O)[C@H](CC(=O)O)NC(=O)[C@H](CC(C)C)NC(=O)[C@](C)(Cc1ccccc1)NC(=O)[C@H](CCCCN)NC(=O)[C@H](CO)NC(=O)[C@@H](NC(=O)[C@H](CC(=O)O)NC(=O)[C@H](CO)NC(=O)[C@@H](NC(=O)[C@](C)(Cc1ccccc1)NC(=O)[C@H](CO)NC(=O)CNC(=O)[C@H](Cc1c[nH]cn1)NC(=O)C(C)(C)NC(=O)[C@@H](N)Cc1c[nH]cn1)[C@@H](C)O)C(C)C)C(C)C)C(=O)N[C@@H](C)C(=O)N[C@@H](CCC(=O)O)C(=O)N[C@H](C(N)=O)[C@@H](C)O [Peptide 299] (H-H[Aib]HGS[αMeF]TSDVSK[αMeF]LDSRAAK([AEEA-AEEA-γGlu-γGlu-C20 diacid])D[αMeF]VQ[Aib]IAET-NH2) |
| 0.104 | 0.0304 | 6.8 | CC[C@H](C)[C@H](NC(=O)C(C)(C)NC(=O)[C@H](CCC(N)=O)NC(=O)[C@@H](NC(=O)[C@](C)(Cc1ccccc1)NC(=O)[C@H](CC(=O)O)NC(=O)[C@H](CCCCNC(=O)COCCOCCNC(=O)COCCOCCNC(=O)CC[C@H](NC(=O)CCCCCCCCCCCCCCCCC(=O)O)C(=O)O)NC(=O)[C@H](C)NC(=O)[C@H](C)NC(=O)[C@H](CCCNC(=N)N)NC(=O)[C@H](CO)NC(=O)[C@H](CC(=O)O)NC(=O)[C@H](CC(C)C)NC(=O)[C@](C)(Cc1ccccc1)NC(=O)[C@H](CCCNC(=N)N)NC(=O)[C@H](CO)NC(=O)[C@@H](NC(=O)[C@H](CC(=O)O)NC(=O)[C@H](CO)NC(=O)[C@@H](NC(=O)[C@](C)(Cc1ccccc1)NC(=O)[C@H](CO)NC(=O)CNC(=O)[C@H](Cc1c[nH]cn1)NC(=O)C(C)(C)NC(=O)[C@@H](N)Cc1c[nH]cn1)[C@@H](C)O)C(C)C)C(C)C)C(=O)N[C@@H](C)C(=O)N[C@@H](CC(N)=O)C(=O)N[C@H](C(N)=O)[C@@H](C)O [Peptide 297] (H-H[Aib]HGS[αMeF]TSDVSR[αMeF]LDSRAAK([AEEA-AEEA-γGlu-C18 diacid])D[αMeF]VQ[Aib]IANT-NH2) |
| 0.102 | 0.51 | 0.4 | CC[C@H](C)[C@H](NC(=O)[C@H](Cc1c[nH]c2ccccc12)NC(=O)[C@H](CCC(N)=O)NC(=O)[C@@H](NC(=O)[C@](C)(Cc1ccccc1)NC(=O)[C@H](CC(=O)O)NC(=O)[C@H](CCCCNC(=O)COCCOCCNC(=O)COCCOCCNC(=O)CC[C@H](NC(=O)CCCCCCCCCCCCCCCCC(=O)O)C(=O)O)NC(=O)[C@H](C)NC(=O)[C@H](C)NC(=O)[C@H](CCCNC(=N)N)NC(=O)[C@H](CO)NC(=O)[C@H](CC(=O)O)NC(=O)[C@H](CC(C)C)NC(=O)[C@H](Cc1ccc(O)cc1)NC(=O)[C@H](CCCCN)NC(=O)[C@H](CO)NC(=O)[C@@H](NC(=O)[C@H](CC(=O)O)NC(=O)[C@H](CO)NC(=O)[C@@H](NC(=O)[C@H](Cc1ccccc1)NC(=O)[C@H](CO)NC(=O)CNC(=O)[C@H](Cc1c[nH]cn1)NC(=O)C(C)(C)NC(=O)[C@@H](N)Cc1c[nH]cn1)[C@@H](C)O)C(C)C)C(C)C)C(=O)N[C@@H](C)C(=O)N[C@@H](CC(N)=O)C(=O)N[C@H](C(N)=O)[C@@H](C)O [Peptide 294] (H-H[Aib]HGSFTSDVSKYLDSRAAK([AEEA-AEEA-γGlu-C18 diacid])D[αMeF]VQWIANT-NH2) |
| 0.0996 | 0.0991 | 2.0 | CC[C@H](C)[C@H](NC(=O)C(C)(C)NC(=O)[C@H](CCC(N)=O)NC(=O)[C@@H](NC(=O)[C@](C)(Cc1ccccc1)NC(=O)[C@H](CC(=O)O)NC(=O)[C@H](CCCCNC(=O)COCCOCCNC(=O)COCCOCCNC(=O)CC[C@H](NC(=O)CCCCCCCCCCCCCCCCC(=O)O)C(=O)O)NC(=O)[C@H](C)NC(=O)[C@H](C)NC(=O)[C@H](CCCNC(=N)N)NC(=O)[C@H](CO)NC(=O)[C@H](CC(=O)O)NC(=O)[C@H](CC(C)C)NC(=O)[C@](C)(Cc1ccccc1)NC(=O)[C@H](CCCCN)NC(=O)[C@H](CO)NC(=O)[C@@H](NC(=O)[C@H](CC(=O)O)NC(=O)[C@H](CO)NC(=O)[C@@H](NC(=O)[C@](C)(Cc1ccccc1)NC(=O)[C@H](CO)NC(=O)CNC(=O)[C@H](Cc1c[nH]cn1)NC(=O)C(C)(C)NC(=O)[C@@H](N)Cc1c[nH]cn1)[C@@H](C)O)C(C)C)C(C)C)C(=O)N[C@@H](C)C(=O)N[C@@H](CC(N)=O)C(=O)N[C@H](C(=O)O)[C@@H](C)O [Peptide 303] (H-H[Aib]HGS[αMeF]TSDVSK[αMeF]LDSRAAK([AEEA-AEEA-γGlu-C18 diacid])D[αMeF]VQ[Aib]IANT-OH) |
